Data published in PMC10385579, “Design, Synthesis, and Biological Evaluation of Indole-2-carboxamides as Potential Multi-Target Antiproliferative Agents” (Pharmaceuticals, 2023).
Like-named read-outs stand apart in the source and are kept apart here. One block for each molecule: values may come before it.

Key:
VEGFR-2 [1] = target: T1, VEGFR-2 (Homo sapiens, UniProt P35968); design: purchased Carna Biosciences, Inc; settings: cited from earlier work
EGFR [2] = target: T2, EGFR (Homo sapiens, UniProt P00533); design: 645–1186); His6 (N); made in house; host or cells: Sf-9 insect cells (baculovirus; pBlueBacHis2B / pFASTBacHTc; settings: cited from earlier work
cancer cell lines = tested on: cancer cell lines; design: method as in PMID 32920363, PMID 29407956, PMID 36770936, PMID 36015154, PMID 35078049; settings: cited from earlier work
BRAF^V600E [3] = tested on: BRAF^V600E; design: method as in PMID 32920363, PMID 29407956, PMID 36770936, PMID 36015154, PMID 35078049; settings: cited from earlier work
CDK2 = tested on: CDK2; design: method as in PMID 32920363, PMID 29407956, PMID 36770936, PMID 36015154, PMID 35078049; settings: cited from earlier work
EGFR^T790M = tested on: EGFR^T790M; design: method as in PMID 32920363, PMID 29407956, PMID 36770936, PMID 36015154, PMID 35078049; settings: cited from earlier work
caspase-3 = assay: Caspase 3 assay in A-549 cells; format: cell-based, human; settings: for Caspase-3 Conc: untreated control 66 pg/mL; for Caspase-3 Fold Change: vs untreated control
Protocol: Caspases play a crucial function in the induction and completion of apoptosis. Caspase-3 is an essential caspase that cleaves different proteins in cells, resulting in apoptosis. […]
4.2.5. Caspase-3 activation assay
Allow all reagents to reach room temperature before use. Gently mix all liquid reagents prior to use. Determine the number of 8-well strips needed for the assay. Insert these in the frame(s) for current use. Add 100 μl of the Standard Diluent Buffer to the zero standard wells. Well(s) reserved for chromogen blank should be left empty. Add 100 μl of standards and controls or diluted samples to the appropriate microtiter wells. The sample dilution chosen should be optimized for each experimental system. Tap gently on side of plate to mix. Cover wells with plate cover and incubate for 2 hours at room temperature. Thoroughly aspirate or decant solution from wells and discard the liquid, Wash wells 4 times. Pipette 100 μl of Caspase-3 (Active) Detection Antibody solution into each well except the chromogen blank(s). Tap gently on the side of the plate to mix. Cover plate with plate cover and incubate for 1 hour at room temperature. Thoroughly aspirate or decant solution from wells and discard the liquid, Wash wells 4 times. Add 100 μl Anti-Rabbit IgG HRP Working Solution to each well except the chromogen blank(s). Prepare the working dilution as described in Preparing IgG HRP. Cover wells with the plate cover and incubate for 30 minutes at room temperature. Thoroughly aspirate or decant solution from wells and discard the liquid. Wash wells 4 times. Add 100 μl of Stabilized Chromoge n to each well. The liquid in the wells will begin to turn blue. Incubate for 30 minutes at room temperature and in the dark. The incubation time for chromogen substrate is often determined by the microtiter plate reader used. Many plate readers have the capacity to record a maximum optical density (O.D.) of 2.0. The O.D. values should be monitored, and the substrate reaction stopped before the O.D. of the positive wells exceeds the limits of the instrument. The O.D. values at 450 nm can only be read after the Stop Solution has been added to each well. If using a reader that records only to 2.0 O.D., stopping the assay after […]
Add 100 μl of Stop Solution to each well. Tap side of plate gently to mix. The solution in the wells should change from blue to yellow. Read the absorbance of each well at 450 nm having blanked the plate reader against a chromogen blank composed of 100 μl each of Stabilized Chromogen and Stop Solution. Read the plate within 2 hours after adding the Stop Solution. Use a curve fitting software to generate the standard curve. A four-parameter algorithm provides the best standard curve fit. Read the concentrations for unknown samples and controls from the standard curve. Multiply value(s) obtained for sample(s) by the appropriate dilution factor to correct for the dilution in step 3. Samples producing signals greater than that of the highest standard should be diluted in Standard Diluent Buffer and reanalyzed.

BRAF^V600E [4] = target: BRAF^V600E (Mus musculus, UniProt P28028, V585E); assay: BRAF^V600E inhibitory assay
Protocol: BRAFV600E inhibitory assay
V600E mutant BRAF kinase assay was performed to investigate the activity of tested compounds against BRAF. Mouse full-length GST-tagged BRAFV600E (7.5 ng, Invitrogen, PV3849) was pre-incubated with drug (1 µL) and assay dilution buffer (4 µL) for 60 min at 25 °C. In assay dilution buffer, a solution (5 µL) containing MgCl2 (30 mM), ATP (200 µM), recombinant human full length (200 ng) and N-terminal His-tagged MEK1 (Invitrogen) was added to start the assay, subsequent to incubation for 25 min at 25 °C. The assay was stopped using 5X protein denaturing buffer (LDS) solution (5 µL). To further denature the protein, heat (70° C) was applied for 5 min.
10 µL of each reaction was loaded into the precast plates and electrophoresis was allowed to proceed. After completion of electrophoresis, the front part of the precast gel plate (holding hot ATP) was cut and afterwards cast-off. The dried gel was developed using a phosphor screen.

VEGFR-2 [5] = target: T1, VEGFR-2; assay: VEGFR-2 inhibitory assay
Protocol: Prepare all the solutions using autoclaved, deionized water and analytical grade reagents.
and store all the reagents at room temperature (unless indicated otherwise).
solution, add 5 mL ultra-pure water; 1×Kinase Assay Buffer: add 25 mL HEPES solution (1 M),
water, adjust pH to 7.5 and constant volume to 500 mL using ultrapure water; 4×Stop solution (40
mM): Mix 0.8 mL of the foregoing EDTA solution, 1 mL 10×Detection Buffer and 8.2 mL ultra-
pure water; 1×Detection Buffer: Mix 1 mL 10×Detection Buffer with 9 mL water; 4×VEGFR
μM) was added to 624 μL 1×Kinase Assay Buffer and mixed; 4×ULight™-labeled JAK1
concentration 5 μM) was added to 576 μL 1×Kinase Assay Buffer and mixed; 4×ATP Solution
2×substrate/ATP Mix: 560 μL foregoing 4×ULight™-labeled JAK1 and 560 μL 4×ATP solution
and mixed (prepared before use). The assays used an ULight-labeled peptide substrate and a
Europium-W1024-labeled antiphosphotyrosine antibody. The VEGFR-2 was purchased from
Carna Biosciences, Inc. (New York, USA). The 384-well plates were obtained from PerkinElmer.
5 μL 2×VEGFR-2 kinase solution (0.5 nM)
was added to 384-well plates homogeneous mixing and pre-reaction at room temperature for 30 min. Next, 2.5 μL 4×Ultra ULightTM-JAK-1(Tyr1023) Peptide (200 nM)/ATP (40 μM) was added to the corresponding wells of a 384-well plate. Negative control: 2.5 μL/well 4×substrate/ATP mixture and 7.5 μL 1×kinase assay buffer in 384-well plate well. Positive control:
μL/well 2×VEGFR-2 kinase solution was added to the 384-well plate, The final concentration of DMSO in the mixing system was 4%. After incubation at room temperature and dark for 60 min, 5 μL 4×stop solution was added to corresponding wells to react for 5 min and then 5 μL 4×detection mix was added to the corresponding wells of a 384-well plate. The mixture was centrifugally mixed and stayed for 60 min at room temperature for color development. The plate was read using a Envision plate reader. The inhibition rate (%) = (positive well reading-compound well reading)/(positive well reading-negative well reading)×100. The corresponding IC50 values were calculated using GraphPad Prism 5.0.

[6] = tested on: colon cancer (HT-29) cell line; assay: Antiproliferative assay, HT-29; format: cell-based; settings: Homo sapiens, read-out: Antiproliferative Activity IC50 ± SEM, HT-29
Protocol: (§1) 4.2.1.2. Assay for antiproliferative effect
(§2) To explore the antiproliferative potential of compounds propidium iodide fluorescence assay was performed using different cell lines such as Panc-1 (pancreas cancer cell line), MCF-7 (breast cancer cell line), HT-29 (colon cancer cell line) and A-549 (epithelial cancer cell line), respectively.
(§3) To calculate the total nuclear DNA, a fluorescent dye (propidium iodide, PI) is used which can attach to the DNA, thus offering a quick and precise technique. PI cannot pass through the cell membrane and its signal intensity can be considered as directly proportional to quantity of cellular
(§4) DNA. Cells whose cell membranes are damaged or have changed permeability are counted as dead ones. The assay was performed by seeding the cells of different cell lines at a density of 3000-7500 cells/well (in200μl medium) in culture plates followed by incubation for 24h at 37 °C in humidified 5%CO2/95% air atmospheric conditions. The medium was removed; the compounds were added to the plates at 10 μM concentrations (in 0.1% DMSO) in triplicates, followed by incubation for 48h. DMSO (0.1%) was used as control. After incubation, medium was removed followed by the addition of PI (25 μl, 50μg/mL in water/medium) to each well of the plates. At - 80 °C, the plates were allowed to freeze for 24 h, followed by thawing at 25 °C. A fluorometer (Polar-Star BMG Tech) was used to record the readings at excitation and emission wavelengths of 530 and 620 nm for each well. The percentage cytotoxicity of compounds was calculated using […]
(§5) Where ATC= Absorbance of treated cells and AC= Absorbance of control. Erlotinib was used as positive control in the assay.

EGFR [7] = target: T2, EGFR; assay: EGFR inhibitory assay
[8] = tested on: four human cancer cell lines (A-549, MCF-7, Panc-1, HT-29); assay: Antiproliferative assay, average over the four cancer cell lines (GI50); format: cell-based; settings: average of the four cancer cell lines
Protocol: See Supplementary Materials.
as §1
To explore the antiproliferative potential of compounds propidium iodide fluorescence assay was performed using different cell lines such as Panc-1 (pancreas cancer cell line), MCF-7 (breast […]
as §3
DNA. Cells whose cell membranes are damaged or have changed permeability are counted as dead ones. The assay was performed by seeding the cells of different cell lines at a density of 3000- […]
The medium was removed; the compounds were added to the plates at 10 μM concentrations (in 0.1% DMSO) in triplicates, followed by incubation for 48h. DMSO (0.1%) was used as control. After incubation, medium was removed followed by the addition of PI (25 μl, 50μg/mL in water/medium) to each well of the plates. At - 80 °C, the plates were allowed to freeze for 24 h, followed by thawing at 25 °C. A fluorometer (Polar-Star BMG Tech) was used to record the readings at excitation and emission wavelengths of 530 and 620 nm for each well. The percentage cytotoxicity of compounds was calculated using […]
Where ATC= Absorbance of treated cells and AC= Absorbance of control. […]
positive control in the assay.

[9] = tested on: pancreatic cancer (Panc-1) cell line; assay: Antiproliferative assay, Panc-1; format: cell-based; settings: Homo sapiens, read-out: Antiproliferative Activity IC50 ± SEM, Panc-1
Protocol: as §1, §2, §3, §4, §5

[10] = tested on: breast cancer (MCF-7) cell line; assay: Antiproliferative assay, MCF-7; format: cell-based; settings: Homo sapiens, MCF7; read-out: Antiproliferative Activity IC50 ± SEM, MCF-7
Protocol: as §1, §2, §3, §4, §5

[11] = tested on: human epithelial (A-549) cancer cell line; assay: Antiproliferative assay, A-549; format: cell-based; settings: A549, read-out: Antiproliferative Activity IC50 ± SEM, A-549
Protocol: as §1, §2, §3, §4, §5

[12] = Cell viability assay (MTT) on MCF-10A; format: cell-based; settings: human, MCF-10A mammary gland epithelial cells, MCF-10A cells, four days
Protocol: To assess the viability of compounds IV and Va–i, the human mammary gland epithelial (MCF-10A) cell line was exploited. Compounds IV and Va–i were cultured for four days on MCF-10A cells before being evaluated for vitality using the MTT assay.
To test the viability of the new compounds, the human mammary gland epithelial (MCF-10A) cell line was used. Compounds IV and Va–i were incubated on MCF-10A cells for four days before being tested for viability using the MTT assay. See Supplementary Materials.
4.2. Biological evaluation
4.2.1. Cytotoxic activity using MTT Assay and evaluation of IC50
MTT assay was performed to investigate the effect of the synthesized compounds on mammary epithelial cells (MCF-10A). The cells were propagated in medium consisting of Ham's F-12 medium/ Dulbecco's modified Eagle's medium (DMEM) (1:1) supplemented with 10% foetal calf serum, 2 mM glutamine, insulin (10 μg/mL), hydrocortisone (500 ng/mL) and epidermal growth factor (20 ng/mL). Trypsin ethylenediamine tetra acetic acid (EDTA) was used to passage the cells after every 2-3 days. 96-well flat-bottomed cell culture plates were used to seed the cells at a density of 10^4 cells mL-1. The medium was aspirated from all the wells of culture plates after 24 h followed by the addition of synthesized compounds (in 200 μL medium to yield a final concentration of 0.1% (v/v) dimethyl sulfoxide) into individual wells of the plates. Four wells were designated to a single compound. The plates were allowed to incubate at 37°C for 96 h. Afterwards, the medium was aspirated and 3-[4,5-dimethylthiazol-2-yl]-2,5-diphenyltetrazolium bromide (MTT) (0.4 mg/mL) in medium was added to each well and subsequently incubated for 3 h. The medium was aspirated and 150 μL dimethyl sulfoxide (DMSO) was added to each well. The plates were vortexed followed by the measurement of absorbance at 540 nm on a microplate reader. The results were presented as inhibition (%) of proliferation in contrast to controls comprising 0.1%

[13] = tested on: mutant EGFR vs wild-type EGFR; settings: cited from earlier work
[14] = four cancer cell lines, read-out: GI50 vs four cancer cell lines

BRAF^V600E (Mus musculus, UniProt P28028, V585E), sequence (P28028 whole entry V585E): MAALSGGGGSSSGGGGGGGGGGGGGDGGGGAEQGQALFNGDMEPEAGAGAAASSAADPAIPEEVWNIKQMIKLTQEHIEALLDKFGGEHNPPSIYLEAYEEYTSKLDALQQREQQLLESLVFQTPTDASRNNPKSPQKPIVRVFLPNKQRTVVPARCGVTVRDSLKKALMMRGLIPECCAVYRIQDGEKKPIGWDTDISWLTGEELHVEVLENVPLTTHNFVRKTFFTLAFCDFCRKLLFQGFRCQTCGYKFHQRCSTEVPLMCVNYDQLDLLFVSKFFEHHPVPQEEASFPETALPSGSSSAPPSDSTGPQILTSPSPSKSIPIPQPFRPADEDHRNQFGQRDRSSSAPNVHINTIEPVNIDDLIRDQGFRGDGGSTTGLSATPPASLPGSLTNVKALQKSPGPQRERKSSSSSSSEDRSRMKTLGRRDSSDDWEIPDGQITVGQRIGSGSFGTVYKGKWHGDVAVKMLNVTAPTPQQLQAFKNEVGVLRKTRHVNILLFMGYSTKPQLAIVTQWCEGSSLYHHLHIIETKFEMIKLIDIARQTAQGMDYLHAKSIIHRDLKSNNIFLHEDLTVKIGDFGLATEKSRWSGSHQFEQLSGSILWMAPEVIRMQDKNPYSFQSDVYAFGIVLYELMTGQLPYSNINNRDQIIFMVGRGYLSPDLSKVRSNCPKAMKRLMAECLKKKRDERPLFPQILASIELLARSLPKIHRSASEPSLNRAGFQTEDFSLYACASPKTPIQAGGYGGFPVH
T2 sequence (P00533 669-1210): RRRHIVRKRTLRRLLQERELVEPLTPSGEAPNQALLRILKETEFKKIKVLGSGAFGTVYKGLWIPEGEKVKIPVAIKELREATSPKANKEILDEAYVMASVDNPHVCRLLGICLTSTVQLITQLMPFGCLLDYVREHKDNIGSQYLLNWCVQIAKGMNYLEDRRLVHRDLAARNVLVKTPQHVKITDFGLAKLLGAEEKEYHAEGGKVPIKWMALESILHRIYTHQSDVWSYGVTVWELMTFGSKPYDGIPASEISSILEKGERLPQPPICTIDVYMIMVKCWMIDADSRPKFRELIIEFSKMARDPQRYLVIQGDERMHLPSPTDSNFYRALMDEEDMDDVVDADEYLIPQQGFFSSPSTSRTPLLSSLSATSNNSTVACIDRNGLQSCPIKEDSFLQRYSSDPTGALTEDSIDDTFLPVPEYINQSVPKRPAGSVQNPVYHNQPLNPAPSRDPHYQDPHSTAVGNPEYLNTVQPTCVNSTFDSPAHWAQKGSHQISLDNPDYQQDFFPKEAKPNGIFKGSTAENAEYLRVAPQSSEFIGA
T1 sequence (P35968 20-1356): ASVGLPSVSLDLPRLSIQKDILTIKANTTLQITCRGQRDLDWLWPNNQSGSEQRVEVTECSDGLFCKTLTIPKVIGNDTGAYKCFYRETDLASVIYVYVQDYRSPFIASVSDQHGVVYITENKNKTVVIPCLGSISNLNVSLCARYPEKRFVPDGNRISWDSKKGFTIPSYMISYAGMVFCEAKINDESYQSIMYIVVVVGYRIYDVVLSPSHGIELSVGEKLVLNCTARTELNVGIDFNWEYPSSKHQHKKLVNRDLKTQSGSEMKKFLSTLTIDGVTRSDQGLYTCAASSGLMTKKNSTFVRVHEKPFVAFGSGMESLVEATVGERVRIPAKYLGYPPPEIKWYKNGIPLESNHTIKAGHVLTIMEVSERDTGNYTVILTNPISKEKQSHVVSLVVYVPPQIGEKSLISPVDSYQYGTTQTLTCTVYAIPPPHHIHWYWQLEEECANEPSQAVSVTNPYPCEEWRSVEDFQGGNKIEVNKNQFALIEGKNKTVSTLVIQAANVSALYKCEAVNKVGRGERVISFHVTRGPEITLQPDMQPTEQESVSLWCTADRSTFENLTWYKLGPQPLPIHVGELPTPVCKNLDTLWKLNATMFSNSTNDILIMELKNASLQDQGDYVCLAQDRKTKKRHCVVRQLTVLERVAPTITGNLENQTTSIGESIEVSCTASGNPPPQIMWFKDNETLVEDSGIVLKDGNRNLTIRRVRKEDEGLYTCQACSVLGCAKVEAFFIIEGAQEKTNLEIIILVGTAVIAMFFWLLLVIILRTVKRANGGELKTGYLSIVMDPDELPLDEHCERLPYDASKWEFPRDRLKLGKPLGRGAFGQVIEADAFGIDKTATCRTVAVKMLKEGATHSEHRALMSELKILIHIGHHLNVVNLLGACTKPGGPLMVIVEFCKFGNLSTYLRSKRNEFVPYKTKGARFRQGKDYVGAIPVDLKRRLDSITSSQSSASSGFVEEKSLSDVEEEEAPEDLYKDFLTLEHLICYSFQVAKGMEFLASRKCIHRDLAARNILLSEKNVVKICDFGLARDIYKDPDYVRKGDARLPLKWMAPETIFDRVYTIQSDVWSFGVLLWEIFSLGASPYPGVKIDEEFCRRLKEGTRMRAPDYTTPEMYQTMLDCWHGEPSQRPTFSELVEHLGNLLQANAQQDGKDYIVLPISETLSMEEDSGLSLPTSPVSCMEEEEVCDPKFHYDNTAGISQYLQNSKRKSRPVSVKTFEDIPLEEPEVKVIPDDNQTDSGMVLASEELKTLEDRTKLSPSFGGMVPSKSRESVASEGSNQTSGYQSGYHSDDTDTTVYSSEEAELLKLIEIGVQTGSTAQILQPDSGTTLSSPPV

SMILES: c1nc(Nc2ccc(N3CCOCC3)cc2)cc(Oc2ccc3[nH]ccc3c2)n1 [Compound 4]
IC50 (VEGFR-2 [1]): 1200 nM | IC50 (EGFR [2]): 7 nM

SMILES: Cc1c2cc(Cl)ccc2n2cc(Cc3ccccc3)[nH]c(=O)c12 [Compound 6]
GI50 (cancer cell lines; three cancer cell lines, read-out: GI50 vs three cancer cell lines): 500 nM | IC50 (BRAF^V600E [3]): 100 nM

SMILES: Cc1c2n(c3ccc(Cl)cc13)C(=O)CN(CCc1ccc(N3CCOCC3)cc1)C2=O [Compound 7]
GI50 (cancer cell lines; [14]): 1100 nM | IC50 (BRAF^V600E [3]): 150 nM

SMILES: CCOCc1c2n(c3ccc(Cl)cc13)C(=O)CN(CCc1ccc(N3CCOCC3)cc1)C2=O [Compound 9]
GI50 (cancer cell lines; [14]): 35 nM | IC50 (BRAF^V600E [3]): 45 nM

SMILES: Cc1c(C(=O)NCCc2ccc(N3CCCC3C)cc2)[nH]c2ccc(Cl)cc12 (centres unmarked) [Compound 10]
GI50 (cancer cell lines; [14]): 950 nM | IC50 (CDK2): 13 nM

SMILES: CCOC(=O)c1[nH]c2ccc(Cl)cc2c1CNCCc1cccc(N2CCCCC2)c1 [Compound 11]
IC50 (EGFR^T790M): 8.6 nM | GI50 (cancer cell lines; [14]): 29 nM | IC50 (BRAF^V600E [3]): 35 nM

SMILES: CCc1c(C(=O)NCCc2ccc(N3CCOCC3)cc2)[nH]c2ccc(C)cc12 [Compound 12]
GI50 (cancer cell lines; [14]): 37 nM | IC50 (CDK2): 16 nM

SMILES: CCOCc1c(C(=O)NCC(c2ccccc2)c2c(-c3ccccc3)[nH]c3ccccc23)[nH]c2ccc(Cl)cc12 (centres unmarked) [Compound Vh, 5-Chloro-3-(ethoxymethyl)-N-(2-phenyl-2-(2-phenyl-1H-indol-3-yl)ethyl)-1H-indole-2-carboxamide]
Caspase-3 Conc (caspase-3): 460 ± 4 pg/mL | Caspase-3 Fold Change (caspase-3): 7 | IC50 (BRAF^V600E [4]): 89 ± 7 nM | IC50 (VEGFR-2 [5]): 3.25 ± 0.25 nM | IC50 [6]: 38 ± 3 nM | melting point: 210 to 212 °C | IC50 (EGFR [7]): 85 ± 7 nM | GI50 [8]: 37 nM | IC50 [9]: 36 ± 3 nM | IC50 [10]: 38 ± 3 nM | IC50 [11]: 34 ± 3 nM | viability at 96 h, 50 µM [12]: 90%

SMILES: C=CC(=O)Nc1cc(Nc2nccc(-c3cn(C)c4ccccc34)n2)c(OC)cc1N(C)CCN(C)C [Osimertinib]
selectivity for the mutant protein over wild-type EGFR [13]: approximately 200 times

IC50 (BRAF^V600E [4]): 97 ± 8 nM | IC50 (VEGFR-2 [5]): 1.1 ± 0.08 nM | IC50 [6]: 45 ± 4 nM | melting point: 132 to 134 °C | IC50 (EGFR [7]): 94 ± 7 nM | GI50 [8]: 44 nM | IC50 [9]: 44 ± 4 nM | IC50 [10]: 46 ± 4 nM | IC50 [11]: 42 ± 4 nM
SMILES: O=C(NCC(c1ccccc1)c1c(-c2ccccc2)[nH]c2ccccc12)c1[nH]c2ccc(Cl)cc2c1CO (centres unmarked) [Ve, 5-Chloro-3-(hydroxymethyl)-N-(2-phenyl-2-(2-phenyl-1H-indol-3-yl)ethyl)-1H-indole-2-carboxamide]
Caspase-3 Conc (caspase-3): 462 ± 4 pg/mL | Caspase-3 Fold Change (caspase-3): 7 | viability at 96 h, 50 µM [12]: 90%

IC50 (BRAF^V600E [4]): 107 ± 9 nM | IC50 (VEGFR-2 [5]): 2.5 ± 0.2 nM | IC50 [6]: 48 ± 4 nM | melting point: 131 to 133 °C | IC50 (EGFR [7]): 103 ± 8 nM | GI50 [8]: 48 nM | IC50 [9]: 48 ± 4 nM | IC50 [10]: 49 ± 4 nM | IC50 [11]: 46 ± 4 nM
SMILES: O=C(NCC(c1ccccc1)c1c(-c2ccccc2)[nH]c2ccccc12)c1[nH]c2ccc(Cl)cc2c1-c1ccccc1 (centres unmarked) [Vf, 5-Chloro-3-phenyl-N-(2-phenyl-2-(2-phenyl-1H-indol-3-yl)ethyl)-1H-indole-2-carboxamide]
viability at 96 h, 50 µM [12]: 91%
